One test deals with T1, human EP3 receptor (Homo sapiens, UniProt P43115).
T1 construct: expressed in transfected cells; host or cells: CHO-K1 cells, pCIN vector
T1 sequence (P43115 1-390): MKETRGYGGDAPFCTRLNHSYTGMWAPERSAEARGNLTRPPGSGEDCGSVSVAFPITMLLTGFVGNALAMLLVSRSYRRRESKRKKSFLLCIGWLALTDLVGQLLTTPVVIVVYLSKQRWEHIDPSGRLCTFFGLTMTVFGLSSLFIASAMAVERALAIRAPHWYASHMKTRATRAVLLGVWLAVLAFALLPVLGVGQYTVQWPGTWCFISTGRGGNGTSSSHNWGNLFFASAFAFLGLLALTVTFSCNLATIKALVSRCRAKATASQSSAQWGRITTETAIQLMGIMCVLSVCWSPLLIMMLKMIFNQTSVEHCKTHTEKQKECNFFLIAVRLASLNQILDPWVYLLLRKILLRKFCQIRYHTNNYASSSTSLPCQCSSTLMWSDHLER
As to the kind of experiment: human EP3 calcium mobilisation assay (FLIPR, CHO-K1 cells). As to conditions: antagonism of PGE2-induced calcium mobilisation, averages of a number of experiments, read-out: functional pKi (converted). Type of test: cell-based. As for the experimental part:
Briefly, the antagonist properties of compounds are assessed by their ability to inhibit the mobilisation of intracellular calcium ([Ca^2+]i) in response to activation of EP1 or EP3 receptors by the natural agonist hormone prostaglandin E2 (PGE2). Increasing concentrations of antagonist reduce the amount of calcium that a given concentration of PGE2 can mobilise. The net effect is to displace the PGE2 concentration-effect curve to higher concentrations of PGE2. The amount of calcium produced is assessed using a calcium-sensitive fluorescent dye such as Fluo-4, AM and a suitable instrument such as a Fluorimetric Imaging Plate Reader (FLIPR). Increasing amounts of [Ca^2+]i produced by receptor activation increase the amount of fluorescence produced by the dye and give rise to an increasing signal. The signal may be detected using the FLIPR instrument and the data generated may be analysed with suitable curve-fitting software.
The human EP1 or EP3 calcium mobilisation assay (hereafter referred to as ‘the calcium assay’) utilises Chinese hamster ovary-K1 (CHO-K1) cells into which a stable (pCIN; BioTechniques 20 (1996): 102-110) vector containing either EP1 or EP3 cDNA has previously been transfected. Cells are cultured in suitable flasks containing culture medium such as DMEM:F-12 supplemented with 10% v/v foetal calf serum, 2 mM L-glutamine, 0.25 mg/ml geneticin, 100 μM flurbiprofen and 10 μg/ml puromycin.
For assay, cells are harvested using a proprietary reagent that dislodges cells such as Versene. Cells are re-suspended in a suitable quantity of fresh culture media for introduction into a 384-well plate. Following incubation for 24 hours at 37° C. the culture media is replaced with a medium containing Fluo-4 and the detergent pluronic acid, and a further incubation takes place. Concentrations of compounds are then added to the plate in order to construct concentration-effect curves. This may be performed on the FLIPR in order to assess the agonist properties of the compounds. […]
The data so generated may be analysed by means of a computerised curve-fitting routine. […]
In general terms: Calcium assays in cells follow changes in intracellular calcium, usually with a dye or a luminescent sensor.

Test [1] concerns rat model of chronic constriction injury. As to conditions: Anesthesia and Analgesia 2001, 93, 1012-7; cited from earlier work.
Test [2] deals with rodent model of post-operative pain. Particulars: Anesthesia and Analgesia 2001, 92, 233-238; cited from earlier work.

Molecules are shown by their SMILES.

On to `CC(C)Cn1cc(-c2nc(C(=O)O)co2)c2cc(Cl)ccc21` [Example 8, 2-[5-Chloro-1-(2-methylpropyl)-1H-indol-3-yl]-1,3-oxazole-4-carboxylic acid], for which the Ki on human EP3 receptor is not below 1000 nM.

`CC(C)Cn1cc(-c2nc(C(=O)O)cs2)c2cc(Cl)ccc21` [Example 7, 2-[5-Chloro-1-(2-methylpropyl)-1H-indol-3-yl]-1,3-thiazole-4-carboxylic acid]: the Ki at human EP3 receptor is not below 1000 nM.

For `Cc1cc(Cl)ccc1S(=O)(=O)NC[C@H]1C2CCC(CC2)[C@@H]1/C=C\CCCC(=O)O` [ONO-8711], the hyperalgesia and allodynia result in test [1] was “reduces hyperalgesia and allodynia”. Further, in test [2], the mechanical hyperalgesia result is “inhibits mechanical hyperalgesia”.

Turning to `Cc1ccc2c(c1)c(-c1nc(C(=O)NS(=O)(=O)c3ccccc3)co1)cn2CC(C)C` [Example 10, 2-[5-Methyl-1-(2-methylpropyl)-1H-indol-3-yl]-N-(phenylsulfonyl)-1,3-oxazole-4-carboxamide], the Ki on human EP3 receptor was more than 316 nM.

The values are drawn from patent US20090281152A1, “Indole Compounds Having Affinity to the EP1 Receptor” (priority 2006, published 2009).
